Source: the NIST ThermoML archive (doi:10.1016/j.jct.2010.10.016)

Assay: xn = mol fraction of the nth substance listed
Settings: 101 kPa, Liquid; for viscosity: Capillary tube (Ostwald / Ubbelohde) method; for mass density: Pycnometric method; for speed of sound: Resonance method

CCCCOCCO [2-butoxyethan-1-ol] + C[N+](=O)[O-]
Settings | mass density [kg/m3] | speed of sound [m/s] | viscosity [mPa·s]
293.15 K, x2 = 0 | 901.19 | 1323.9 | 3.239
293.15 K, x2 = 0.05 | 905.83 | – | –
293.15 K, x2 = 0.0507 | – | 1322.4 | –
293.15 K, x2 = 0.0557 | – | – | 3.019
293.15 K, x2 = 0.0999 | 910.77 | – | –
293.15 K, x2 = 0.1001 | – | 1321.8 | –
293.15 K, x2 = 0.106 | – | – | 2.815
293.15 K, x2 = 0.1974 | – | – | 2.451
293.15 K, x2 = 0.2 | 921.75 | – | –
293.15 K, x2 = 0.2003 | – | 1318.8 | –
293.15 K, x2 = 0.3 | 934.29 | – | –
293.15 K, x2 = 0.3003 | – | 1316.1 | –
293.15 K, x2 = 0.3083 | – | – | 2.031
293.15 K, x2 = 0.4 | 948.84 | – | –
293.15 K, x2 = 0.4005 | – | 1313.7 | –
293.15 K, x2 = 0.4014 | – | – | 1.716
293.15 K, x2 = 0.4487 | – | – | 1.571
293.15 K, x2 = 0.4997 | – | – | 1.432
293.15 K, x2 = 0.5 | 966.21 | – | –
293.15 K, x2 = 0.5002 | – | 1312 | –
293.15 K, x2 = 0.5492 | – | – | 1.307
293.15 K, x2 = 0.5947 | – | – | 1.203
293.15 K, x2 = 0.6 | 987.24 | 1311.8 | –
293.15 K, x2 = 0.699 | – | – | 0.996
293.15 K, x2 = 0.7 | 1013.09 | 1313.7 | –
293.15 K, x2 = 0.7999 | – | 1318.2 | –
293.15 K, x2 = 0.8002 | 1045.18 | – | –
293.15 K, x2 = 0.8012 | – | – | 0.838
293.15 K, x2 = 0.8981 | – | – | 0.72
293.15 K, x2 = 0.8999 | 1085.39 | 1326.4 | –
293.15 K, x2 = 0.9475 | – | – | 0.679
293.15 K, x2 = 0.95 | – | 1332.4 | –
293.15 K, x2 = 0.9503 | 1109.89 | – | –
298.15 K, x2 = 0 | 896.29 | 1306.8 | –
298.15 K, x2 = 0.05 | 900.85 | – | –
298.15 K, x2 = 0.0507 | – | 1305.6 | –
298.15 K, x2 = 0.0999 | 905.68 | – | –
298.15 K, x2 = 0.1001 | – | 1304.5 | –
298.15 K, x2 = 0.2 | 916.48 | – | –
298.15 K, x2 = 0.2003 | – | 1302.2 | –
298.15 K, x2 = 0.3 | 928.9 | – | –
298.15 K, x2 = 0.3003 | – | 1299.6 | –
298.15 K, x2 = 0.4 | 943.34 | – | –
298.15 K, x2 = 0.4005 | – | 1297.2 | –
298.15 K, x2 = 0.5 | 960.53 | – | –
298.15 K, x2 = 0.5002 | – | 1295.5 | –
298.15 K, x2 = 0.6 | 981.35 | 1295.2 | –
298.15 K, x2 = 0.7 | 1006.9 | 1296.8 | –
298.15 K, x2 = 0.7999 | – | 1300.9 | –
298.15 K, x2 = 0.8002 | 1038.68 | – | –
298.15 K, x2 = 0.8999 | 1078.61 | 1308.5 | –
298.15 K, x2 = 0.95 | – | 1313.8 | –
298.15 K, x2 = 0.9503 | 1103.01 | – | –
298.45 K, x2 = 0 | – | – | 2.825
298.45 K, x2 = 0.0506 | – | – | 2.654
298.45 K, x2 = 0.1012 | – | – | 2.483
298.45 K, x2 = 0.2015 | – | – | 2.165
298.45 K, x2 = 0.2997 | – | – | 1.873
298.45 K, x2 = 0.4047 | – | – | 1.581
298.45 K, x2 = 0.4498 | – | – | 1.464
298.45 K, x2 = 0.5008 | – | – | 1.339
298.45 K, x2 = 0.5481 | – | – | 1.234
298.45 K, x2 = 0.5976 | – | – | 1.131
298.45 K, x2 = 0.6984 | – | – | 0.943
298.45 K, x2 = 0.7981 | – | – | 0.8
298.45 K, x2 = 0.8986 | – | – | 0.689
298.45 K, x2 = 0.9394 | – | – | 0.655
303.15 K, x2 = 0 | 892.35 | 1290.6 | 2.449
303.15 K, x2 = 0.05 | 896.7 | – | –
303.15 K, x2 = 0.0507 | – | 1289.5 | –
303.15 K, x2 = 0.0522 | – | – | 2.307
303.15 K, x2 = 0.0999 | 901.4 | – | –
303.15 K, x2 = 0.1001 | – | 1288.6 | –
303.15 K, x2 = 0.1004 | – | – | 2.171
303.15 K, x2 = 0.2 | 911.94 | – | –
303.15 K, x2 = 0.2003 | – | 1286.3 | –
303.15 K, x2 = 0.2155 | – | – | 1.85
303.15 K, x2 = 0.299 | – | – | 1.635
303.15 K, x2 = 0.3 | 924.13 | – | –
303.15 K, x2 = 0.3003 | – | 1283.6 | –
303.15 K, x2 = 0.3996 | – | – | 1.399
303.15 K, x2 = 0.4 | 938.41 | – | –
303.15 K, x2 = 0.4005 | – | 1281.1 | –
303.15 K, x2 = 0.4495 | – | – | 1.292
303.15 K, x2 = 0.5 | 955.38 | – | –
303.15 K, x2 = 0.5002 | – | 1279.2 | 1.191
303.15 K, x2 = 0.5482 | – | – | 1.102
303.15 K, x2 = 0.5993 | – | – | 1.01
303.15 K, x2 = 0.6 | 975.84 | 1278.5 | –
303.15 K, x2 = 0.6998 | – | – | 0.858
303.15 K, x2 = 0.7 | 1000.85 | 1279.5 | –
303.15 K, x2 = 0.7994 | – | – | 0.738
303.15 K, x2 = 0.7999 | – | 1282.9 | –
303.15 K, x2 = 0.8002 | 1032.09 | – | –
303.15 K, x2 = 0.8999 | 1071.54 | 1288.9 | –
303.15 K, x2 = 0.9005 | – | – | 0.648
303.15 K, x2 = 0.9436 | – | – | 0.619
303.15 K, x2 = 0.95 | – | 1293.2 | –
303.15 K, x2 = 0.9503 | 1095.83 | – | –
308.15 K, x2 = 0 | 887.83 | 1273.5 | 2.079
308.15 K, x2 = 0.05 | 891.97 | – | –
308.15 K, x2 = 0.0501 | – | – | 1.967
308.15 K, x2 = 0.0507 | – | 1273.1 | –
308.15 K, x2 = 0.0999 | 896.44 | – | –
308.15 K, x2 = 0.1001 | – | 1272.2 | –
308.15 K, x2 = 0.1048 | – | – | 1.844
308.15 K, x2 = 0.198 | – | – | 1.639
308.15 K, x2 = 0.2 | 906.69 | – | –
308.15 K, x2 = 0.2003 | – | 1270.2 | –
308.15 K, x2 = 0.3 | 918.65 | – | –
308.15 K, x2 = 0.3003 | – | 1267.9 | –
308.15 K, x2 = 0.3012 | – | – | 1.427
308.15 K, x2 = 0.3999 | – | – | 1.243
308.15 K, x2 = 0.4 | 932.71 | – | –
308.15 K, x2 = 0.4005 | – | 1265.9 | –
308.15 K, x2 = 0.4502 | – | – | 1.154
308.15 K, x2 = 0.4998 | – | – | 1.071
308.15 K, x2 = 0.5 | 949.47 | – | –
308.15 K, x2 = 0.5002 | – | 1264.2 | –
308.15 K, x2 = 0.5499 | – | – | 0.991
308.15 K, x2 = 0.5998 | – | – | 0.917
308.15 K, x2 = 0.6 | 969.67 | 1263.4 | –
308.15 K, x2 = 0.6994 | – | – | 0.786
308.15 K, x2 = 0.7 | 994.45 | 1264.3 | –
308.15 K, x2 = 0.7997 | – | – | 0.685
308.15 K, x2 = 0.7999 | – | 1267.3 | –
308.15 K, x2 = 0.8002 | 1025.45 | – | –
308.15 K, x2 = 0.8986 | – | – | 0.616
308.15 K, x2 = 0.8999 | 1064.77 | 1273.2 | –
308.15 K, x2 = 0.9465 | – | – | 0.59
308.15 K, x2 = 0.95 | – | 1276.9 | –
308.15 K, x2 = 0.9503 | 1089.08 | – | –
313.15 K, x2 = 0 | 883.59 | 1257.7 | 1.689
313.15 K, x2 = 0.05 | 887.43 | – | –
313.15 K, x2 = 0.0507 | – | 1257.4 | –
313.15 K, x2 = 0.0511 | – | – | 1.606
313.15 K, x2 = 0.0999 | 891.75 | – | –
313.15 K, x2 = 0.1001 | – | 1256.8 | –
313.15 K, x2 = 0.1135 | – | – | 1.493
313.15 K, x2 = 0.2 | 901.79 | – | –
313.15 K, x2 = 0.2003 | – | 1254.9 | –
313.15 K, x2 = 0.2156 | – | – | 1.314
313.15 K, x2 = 0.2993 | – | – | 1.18
313.15 K, x2 = 0.3 | 913.58 | – | –
313.15 K, x2 = 0.3003 | – | 1252.7 | –
313.15 K, x2 = 0.3971 | – | – | 1.042
313.15 K, x2 = 0.4 | 927.46 | – | –
313.15 K, x2 = 0.4005 | – | 1250.6 | –
313.15 K, x2 = 0.4497 | – | – | 0.974
313.15 K, x2 = 0.4973 | – | – | 0.915
313.15 K, x2 = 0.5 | 943.98 | – | –
313.15 K, x2 = 0.5002 | – | 1248.8 | –
313.15 K, x2 = 0.5458 | – | – | 0.858
313.15 K, x2 = 0.5989 | – | – | 0.798
313.15 K, x2 = 0.6 | 963.96 | 1248 | –
313.15 K, x2 = 0.6958 | – | – | 0.698
313.15 K, x2 = 0.7 | 988.46 | 1248.7 | –
313.15 K, x2 = 0.7999 | – | 1251.4 | –
313.15 K, x2 = 0.8002 | 1018.86 | – | –
313.15 K, x2 = 0.8004 | – | – | 0.617
313.15 K, x2 = 0.893 | – | – | 0.572
313.15 K, x2 = 0.8999 | 1057.69 | 1256.3 | –
313.15 K, x2 = 0.9491 | – | – | 0.556
313.15 K, x2 = 0.95 | – | 1259.5 | –
313.15 K, x2 = 0.9503 | 1081.78 | – | –
